In ChEMBL document CHEMBL1201862, “PubChem BioAssay data set” (2004):
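Interpolation was linear, between the two tested concentrations surrounding the appropriate level; five concentrations were tested over 48 hours in 96-well plates. GI50 is the concentration that inhibits growth by half.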 The source made the active and inactive calls. Rule as the data show it: active = GI50 up to about 1.1 µM and inactive = higher.

Columns and labels:
Experiment in all cases: DTP human tumour cell line panel, 48 h
MOLT-4 = test system: MOLT-4
COLO 205 = test system: COLO 205
EKVX = test system: EKVX
NCI-H460 = test system: NCI-H460
M19-MEL = test system: M19-MEL
SF-539 = test system: SF-539
SF-295 = test system: SF-295
KM-20L2 = test system: KM-20L2
TK-10 = test system: TK-10
NCI-H226 = test system: NCI-H226
LOX IMVI = test system: LOX IMVI
HCT-116 = test system: HCT-116
SNB-75 = test system: SNB-75
CAKI-1 = test system: CAKI-1
SK-MEL-2 = test system: SK-MEL-2
A498 = test system: A498
MDA-MB-231 = test system: MDA-MB-231
PC-3 = test system: PC-3
DU-145 = test system: DU-145
T47D = test system: T47D

Measured: GI50

CC1(C)CC(C2CC(C)(C)CC(C)(C)[C@H]2O)[C@@H](O)C(C)(C)C1 (stereo partly specified)
inactive: MOLT-4 > 100 µM | COLO 205 > 100 µM | EKVX > 100 µM | NCI-H460 > 100 µM | M19-MEL > 100 µM | SF-539 > 100 µM | SF-295 > 100 µM | KM-20L2 > 100 µM | TK-10 > 100 µM | NCI-H226 > 100 µM | LOX IMVI > 100 µM | HCT-116 > 100 µM

NC(Cc1ccccc1)C(=O)OCN1C(=O)C2C3C=CC(C2C1=O)C1C2C(=O)N(COC(=O)C(N)Cc4ccccc4)C(=O)C2C31 (stereo unspecified)
inactive: COLO 205 17.5 µM | SNB-75 22.9 µM | EKVX > 100 µM | NCI-H460 14.4 µM | SF-539 22.2 µM | SF-295 48 µM | KM-20L2 28.4 µM | TK-10 49.3 µM | NCI-H226 46.7 µM | LOX IMVI 21.4 µM | HCT-116 16.3 µM

C#CC[N+](C)(CC#C)CC#C
inactive: MOLT-4 > 100 µM | COLO 205 > 100 µM | SNB-75 > 100 µM | EKVX > 100 µM | CAKI-1 > 100 µM | NCI-H460 > 100 µM | M19-MEL > 100 µM | SK-MEL-2 > 100 µM | SF-295 > 100 µM | KM-20L2 > 100 µM | TK-10 > 100 µM | LOX IMVI > 100 µM

Cn1c(=O)nc2n(-c3cccc(Cl)c3)c3ccccc3nc-2c1=O
inactive: MOLT-4 18.5 µM | COLO 205 4.11 µM | SNB-75 15.3 µM | EKVX 12 µM | CAKI-1 33.7 µM | NCI-H460 6.4 µM | SF-539 16 µM | SK-MEL-2 17.1 µM | SF-295 16.6 µM | KM-20L2 5.92 µM | TK-10 17 µM | NCI-H226 22 µM | LOX IMVI 18.7 µM | HCT-116 13.8 µM | A498 30.5 µM

CCCCCCCCCCCCCCCCCCOCC(C[N+]1(C)CCC(O)CC1)OCC (stereo unspecified)
inactive: MOLT-4 2.87 µM | COLO 205 3.38 µM | SNB-75 3.95 µM | EKVX 13.8 µM | CAKI-1 5.65 µM | M19-MEL 3.52 µM | SF-539 14.9 µM | SK-MEL-2 4.3 µM | SF-295 4.68 µM | TK-10 3.92 µM | NCI-H226 3.08 µM | HCT-116 7.71 µM | A498 11.7 µM

O=C(/C=C/c1ccccc1)Oc1ccc(C(=O)/C=C/c2ccccc2)cc1
inactive: MOLT-4 11.2 µM | COLO 205 13.9 µM | SNB-75 12.5 µM | MDA-MB-231 13.2 µM | EKVX 13.3 µM | CAKI-1 13.1 µM | PC-3 9.31 µM | NCI-H460 8.87 µM | SF-539 3.24 µM | SK-MEL-2 22.4 µM | SF-295 12.9 µM | TK-10 14.5 µM | NCI-H226 34.4 µM | LOX IMVI 4.98 µM | DU-145 10.3 µM | HCT-116 9.64 µM | A498 > 10 µM | T47D 11 µM
